The results in this text go back to patent US9493460B2, “Diimide compounds” (UCL BUSINESS PLC, priority 2013, dated 2016).

For experiment [1], the system named is MiaPaCa2 (pancreatic) cells. Briefly: SRB growth inhibition assay, MiaPaCa2. The format is cell-based, human. In outline:
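Growth inhibition of MiaPaCa2 cells was measured by SRB staining after 96 h exposure to 2-fold serial dilutions of compound dissolved in DMSO. IC50 was derived from mean absorbance at 540 nm expressed as a percentage of untreated control wells.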

For a further experiment, the system named is A549 (lung) cells. Briefly: SRB growth inhibition assay, 96 hr exposure, A549. The class given is cell-based, human. Particulars: Homo sapiens, A549, 96 h exposure. The method in brief:
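SRB growth inhibition was measured after 96 h exposure to 2-fold serial dilutions of compound, with cells maintained at 37 °C in 5% CO2 and medium containing 10% FBS. Absorbance at 540 nm was expressed as a percentage of untreated control wells. IC50 was derived from these values.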

In the next experiment the test system is Panc1 (pancreatic) cells. Briefly: SRB growth inhibition assay, 96 hr exposure, Panc1. The class given is cell-based, human. The following applies: Homo sapiens, PANC-1, 96 h exposure. On the procedure: Human cancer cell lines, MCF7 (breast), A549 (lung), Mia-PaCa2, PANC1 and HPAC (pancreatic), RCC4 and 786-0 renal, and the somatic human cell line WI-38 (lung fibroblast) were purchased from ATCC. Cell lines were maintained in appropriate medium supplemented with 10% foetal bovine serum (Invitrogen, UK), 2 mM L-glutamine (Invitrogen, Netherlands), and other components as specified by the suppliers. Cell lines were maintained at 37° C., 5% CO2 and routinely passaged. Drugs were dissolved in DMSO and filtered through 0.22 μm pore-size filter units before addition to cell line appropriate media. Cellular growth inhibition was measured using the sulforhodamine B (SRB) assay in 96 well plates as described previously.^1,2 Fifty percent inhibitory concentrations (IC50) were determined by taking the mean absorbance at 540 nm for each drug concentration expressed as a percentage of the absorbance of untreated control wells.
The anti-proliferative activity of the group of nine ND derivatives was assessed using the SRB assay following 96 h exposure to 2-fold serial dilutions of each compound (Table 2) in a panel of cancer cell lines together with a normal fibroblast line. […] In contrast the morpholine compounds all show sub-μM anti-proliferative activity in at least some of the cancer cell lines used and the two compounds 3d, 3h with n=3 —(CH2)n— linkers to the morpholine groups, show particularly potent activity in the Mia-PaCa2 and PANC1 pancreatic carcinoma and A549 lung adenocarcinoma cell lines (IC50 values of 10-20 nM).
Next a series of structural isomers were tested.

In experiment [2] the test system is 83 human genes involved in DNA damage signaling responses in Mia-PaCa2 cells. Kind of experiment: qPCR array, DNA damage signaling response genes. Particulars: Mia-PaCa2 cells, data not shown. The format is cell-based. As to the method:
Following compound exposure, cells were washed twice in PBS, harvested by trypsinisation, collected by centrifugation (300 g, 5 min, 4° C.) and re-suspended in RLT buffer (Qiagen). Samples were homogenised using QIAshredder spin columns and stored at −80° C. prior to RNA extraction. Three biological replicates were performed on separate days.
The expression of (i) 83 key human genes involved in telomere replication and maintenance, and (ii) 83 human genes involved in DNA damage signaling responses, was assessed using PCR arrays (SABiosciences). Total RNA was extracted from approximately 1×10^7 Mia-PaCa2 cells treated for 24 h with compound 3d, using the RNeasy kit (Qiagen) with on-column DNaseI treatment to remove residual genomic DNA. The quality of the harvested RNA was confirmed by nanodrop spectroscopy and by analysis with a Human RT^2 RNA QC PCR Array. First-strand cDNA synthesis was performed with the RT^2 first strand kit and qPCR was carried out using the RT^2 qPCR master mix (Qiagen) using 0.5 μg total RNA per array plate in a Stratagene MX-3000P instrument (Agilent, USA). Relative gene expression was determined by the ΔΔCT method using the web-based RT^2 Profiler™ PCR Array Data Analysis software (SABiosciences). Data were normalized to the geometric mean of five housekeeping genes (RPLP10, β-actin, B2M, GAPDH and HPRT1).
Various quadruplex-stabilising agents are known to induce pronounced DNA damage responses. We therefore next assessed the effect of 3d on the transcription of genes associated with DNA damage response and repair pathways. For these pathways the effect of a cytotoxic dosage of 3d (160 nM) on Mia-PaCa2 cells was also tested to assess the correlation between compound-induced DNA damage and cell killing. […] The latter two groups appeared to reflect a dynamic switch in the cellular response from low-level growth inhibition up to 40 nM of 3d to cytostatic then cytotoxic effects at 80 nM and 160 nM respectively.
Instead the response was dominated by genes with roles in growth arrest and more general stress responses.
Background: In qPCR the cycle at which signal appears reflects the starting amount.

The subject of another experiment is telomerase. Kind of experiment: TRAP-LIG cellular telomerase activity assay. The class given is cell-based, human. The following applies: at the doses relevant to the IC50 values. On the procedure: FIG. 1. Gel showing telomerase activity in MIA-Pa-Ca-2 cells treated with compound 3h after seven days of treatment. Lane 1; untreated cells, lanes 2-4; cells treated increasing concentrations of 3h. Telomerase activity was assessed using the TRAP-LIG assay as described in Materials and Methods. Compound concentrations are indicated. Neg; untreated cells, Pos; positive control. Neg: negative control with telomerase but no ligand.
Telomerase activity was determined using the TRAP-LIG assay, a modified telomere repeat amplification protocol that ensures that there is no carry-over of ligand into the second PCR step of the assay. Briefly, 1 μg of protein from untreated and treated cells were incubated with TS forward primer (0.1 μg of 5′-AAT CCG TCG AGC AGA GTT-3′) at 30° C. for 10 min to allow the initial elongation to take place. Elongated products were purified using the QIAquick nucleotide purification kit (Qiagen) according to the manufacturer's instructions. Eluted samples were freeze-dried and re-dissolved in PCR grade water. Re-dissolved PCR products were subjected to amplification in master mix containing ACX reverse primer (1 μM, 5′-GCG CGG [CTTACC]3 CTA ACC-3′), TS forward primer (0.1 μg), TRAP buffer, BSA (5 μg), 0.5 mM dNTPs, and 2U RedHot TAQ polymerase (ABgene, U.K.) for 35 cycles of 94° C. for 30 s, 61° C. for 1 min, and at 72° C. for 1 min. […]

pIC50: −log10 of the molar value.

The pIC50 is the negative decadic logarithm of the IC50, by convention in mol/L. For `CN1CCN(CCNc2cc3c4c(c(NCCN5CCN(C)CC5)cc5c4c2C(=O)N(CCCN2CCOCC2)C5=O)C(=O)N(CCCN2CCOCC2)C3=O)CC1` [Compound 3h, 4,9-bis((2-(4-methylpiperazin-1-yl)ethyl)amino)-2,7-bis(3-morpholinopropyl)benzo[lmn][3,8]phenanthroline-1,3,6,8(2H,7H)-tetraone], the “selectivity for Mia-PaCa2 compared to the normal fibroblast line WI-38” value in experiment [1] was about 200 fold. Moreover, the pIC50 in experiment [1] (Homo sapiens, MIA PaCa-2, SRB assay, 96 h exposure, read-out: IC50 Mia-PaCa2) is 7.70 to 8.00; with A549 (lung) cells it was 7.70 to 8.00; in the experiment on Panc1 (pancreatic) cells it was 7.70 to 8.00. Moreover, in experiment [2], the “induction of γ-H2AX” value is on record as “do not appear to induce these particular changes”. Moreover, the telomerase activity inhibition entry in the experiment on telomerase is “not inhibitors of telomerase activity”.
